Laboratory results: US20240180881A1, “METHODS FOR DECREASING RESISTANCE TO CHEMOTHERAPY” (National Institute of Immunology, priority 2022, published 2024)

How the values were obtained:
[1] = system: HCT116 IC60 CPTR tumors; assay: Xenograft model, camptothecin resistant cells; conditions: for tumor growth: CPT 1.25 mg/kg + compound 5 mg/kg intraperitoneally every 3 days, compared to CPT alone; for apoptosis in tumors, TUNEL positivity: dual treatment with CPT; for cell proliferation in tumors, Ki67 and PCNA levels: dual treatment with CPT/1-OHP
[2] = system: MRP2 in HCT116 WT IC60 CPTR cells; assay: MRP2 activity, CDF accumulation; type: cell-based; conditions: combinatorial treatment with CPT
Experimental: The cells were incubated with MRP2 substrate CDFD for 30 minutes at 37° C. The accumulation of florescent product CDF was determined as a measure of MRP2 activity (FIG. 12E). The data is from three independent experiments. Mean±S.D.

[3] = molecular target: T1, RAD54 chromatin remodeling activity (Homo sapiens, UniProt Q92698); assay: REA assay on chromatinized MRP2 array; type: biochemical; conditions: 10 μM compound
T1 construct: GST RAD54 (1-747) (WT), GST BLM (1-1417) (WT), His RAD54 (1-747) (WT); made in house; host or cells: E. coli BL-21 DE3
T1 sequence (Q92698 1-747): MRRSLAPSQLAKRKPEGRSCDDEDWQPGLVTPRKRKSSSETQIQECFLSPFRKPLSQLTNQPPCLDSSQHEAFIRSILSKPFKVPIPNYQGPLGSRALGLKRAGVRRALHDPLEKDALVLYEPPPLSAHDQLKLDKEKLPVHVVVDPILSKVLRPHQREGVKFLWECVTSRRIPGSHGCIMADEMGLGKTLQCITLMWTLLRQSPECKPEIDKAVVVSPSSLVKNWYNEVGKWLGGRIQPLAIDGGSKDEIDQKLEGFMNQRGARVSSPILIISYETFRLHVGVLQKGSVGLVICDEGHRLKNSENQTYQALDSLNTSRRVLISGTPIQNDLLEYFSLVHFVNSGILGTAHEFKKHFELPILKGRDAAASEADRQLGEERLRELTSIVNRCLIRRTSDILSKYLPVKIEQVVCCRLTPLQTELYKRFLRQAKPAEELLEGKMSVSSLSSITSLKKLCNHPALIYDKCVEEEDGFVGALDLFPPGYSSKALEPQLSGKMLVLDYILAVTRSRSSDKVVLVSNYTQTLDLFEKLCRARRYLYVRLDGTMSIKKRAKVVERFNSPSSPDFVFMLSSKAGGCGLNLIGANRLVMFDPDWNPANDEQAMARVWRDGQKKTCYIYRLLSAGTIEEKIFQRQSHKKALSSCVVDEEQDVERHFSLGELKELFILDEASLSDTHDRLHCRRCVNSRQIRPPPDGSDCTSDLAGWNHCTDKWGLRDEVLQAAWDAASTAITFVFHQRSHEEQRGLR
Description: (§1) The data was from three independent experiments.
as §1
The data is from three independent experiments.

[4] = system: HCT116 CPT(R) cells stably expressing BLM (Delta 181-212) in BLM−/− background; assay: Xenograft, cells expressing BLM (Delta 181-212); type: in vivo, NSG mice; conditions: for tumour volume, chemosensitivity to camptothecin: CPT + compound
Experimental: Xenografts assays were carried out in NSG mice using HCT116 CPT(R) cells stably expressing BLM (Delta 181-212) in BLM−/− background. FIGS. 15A-15C show the tumour volumes post-injection of cells.
RNA (FIG. 15D) or protein (FIG. 15E) levels of the indicated MDR genes were determined by RT-qPCR or immunoblotting with the indicated antibodies.

[5] = molecular target: T2, His-RAD54 WT (Homo sapiens, UniProt Q92698); assay: Tryptophan fluorescence assay; type: binding; conditions: compound, from 10 nM
T2 construct: made in house; host or cells: E. coli BL-21 DE3
T2 sequence (Q92698 1-747): T1 sequence (Q92698 1-747)
Experimental: To determine how BLM peptide affects ATP binding and hydrolysis, tryptophan fluorescence assays were carried out using full-length recombinant RAD54 in presence of either BLM_peptide or SCM_peptide (FIG. 2H). Tryptophan fluorescence assays were carried out with RAD54 WT alone or RAD54 WT in presence of the indicated concentrations of either BLM_peptide (upper panel) or SCM_peptide (lower panel). The experiment was repeated three times and one representative experiment has been shown.
RAD54 fluorescence was measured in a fluorometer.
Tryptophan fluorescence measurements were performed on a Fluoromax Spectrofluorimeter (Horiba-Jobin Yvon Fluoromax 4). Recombinant His-RAD54 (500 nM) was excited at 280 nm and the emission intensity monitored at regular intervals from 295 nm to at least 450 nm.

[6] = system: HCT116 IC60 CPTR cells; assay: Soft agar assay; type: cell-based; conditions: 100 nM compound along with 120 nM of CPT
Experimental: Concentrations of CPT used: 0.140 nM, 20 nM, 50 nM, 1000 nM. Concentration of 1-OHP: 0.14 μM, 2 μM, 4 μM, 6 μM, 8 μM. Concentrations of CDDP used: 0.140 μM, 2 μM, 5 μM, 10 μM. The percentage of viable cells were determined by MTT assays (FIG. 12A-12C). The data in FIG. 12A and FIG. 12C is from three independent experiments and the data in FIG. 12B is from nine independent experiments. […] The levels of MRP2, MRP3, MRP5, MXR were quantitated from three independent experiments. […] Specifically, HCT116 IC60 CPTR cells were transfected with the HR substrate for 72 hours and the levels of HR was determined (FIG. 6A). The data is from three independent experiments. […] The number of soft agar colonies in each condition were counted. The data is from three independent experiments.
3000 cells mixed with 0.4% agar and seeded on top of the 6-well plates pre-coated with 0.8% agar. The resistant cells were treated with 120 nM of CPT. Post-incubation cells were seeded. […] The colonies were then counted after 15 days after staining with 0.25% Crystal Violet.

[7] = system: HCT116 IC60 1-OHPR tumors; assay: Xenograft model, oxaliplatin resistant cells; type: in vivo, NSG mice; conditions: 1-OHP 2 mg/kg + compound 5 mg/kg, compared to 1-OHP alone
Experimental: Tumors from different groups were excised at the end of the experiments. […] For these experiments, RNA and protein was isolated from tumors obtained at the end point of the xenograft experiment. RNA and the protein levels of MRP2 were determined by RT-qPCR and western blotting with anti-MRP2 antibody. For each group three tumor samples were analyzed (FIG. 6F, 6G). […] The levels of the indicated MDR genes were quantitated from three tumor samples from each group. Mean±S.D. (FIG. 13A). […] The experiment was repeated three times and one representative experiment has been shown (FIG. 13B).
In all cases tumor volume were measured at the indicated days post-injection using the following formula: Tumor volume=½(length×width2).

Compound | tumor growth [1] | RNA and protein levels of multiple MDR genes (including MRP2) in tumors ([1]; co-treated with CPT 1.25 mg/kg and compound 5 mg/kg, end point) | apoptosis in tumors, TUNEL positivity [1] | cell proliferation in tumors, Ki67 and PCNA levels [1] | MRP2 activity, accumulation of CDF [2] | BLM dependent enhancement of RAD54 chromatin remodeling, fraction uncut [3] | tumour volume, chemosensitivity to camptothecin [4] | RNA and protein levels of the MDR genes in tumours ([4]; without or with compound treatment) | tryptophan fluorescence of RAD54 [5] | number of soft agar colonies (anchorage independent growth) [6] | tumor growth [7]
CN1CCN(C2=Nc3ccccc3Oc3ccc(Cl)cc32)CC1.O=C(O)CCC(=O)O [C17, Loxapine succinate] | inhibited the tumor growth | very significantly decreased | increased apoptosis | Decreased cell proliferation | decreased MRP2 activity | decreased the efficiency of BLM dependent enhancement of RAD54 chromatin remodelling activity | abrogates the functions | unaffected | quenched the tryptophan florescence of RAD54 even at 10 nM concentration | decreased anchorage independent cell growth | inhibited the tumor growth
CC(=O)Nc1nnc(S(N)(=O)=O)s1 [C3, Acetazolamide] | inhibited the tumor growth | – | increased apoptosis | Decreased cell proliferation | decreased MRP2 activity | decreased the efficiency of BLM dependent enhancement of RAD54 chromatin remodelling activity | abrogates the functions | – | quenched the tryptophan florescence of RAD54 even at 10 nM concentration | decreased anchorage independent cell growth | inhibited the tumor growth
OCCN(CCO)c1nc(N2CCCCC2)c2nc(N(CCO)CCO)nc(N3CCCCC3)c2n1 [C7, Dipyridamole] | inhibited the tumor growth | – | increased apoptosis | Decreased cell proliferation | decreased MRP2 activity | decreased the efficiency of BLM dependent enhancement of RAD54 chromatin remodelling activity | abrogates the functions | – | quenched the tryptophan florescence of RAD54 even at 10 nM concentration | decreased anchorage independent cell growth | inhibited the tumor growth
